Source: patent US7612087B2, “Heterocyclic compounds as inhibitors of beta-lactamases” (Novexel, priority 2002, dated 2009)
Like-named read-outs stand apart in the source and are kept apart here.

Tests used:
β-lactamase TEM1 = target: T1, β-lactamase TEM1 (Escherichia coli, UniProt P62593); assay: Inhibition of isolated β-lactamase Tem-1 (Nitrocefin hydrolysis); type: biochemical, E.coli 250HT21; details: 100 μM Nitrocefin, 50 mM sodium phosphate buffer pH7.0, 37° C.
T1 construct: The β-lactamases are isolated from bacterial strains which are resistant to penicillins and cephalosporins; endogenous in cells; host or cells: E. coli 250HT21 (natural producer; French-press lysate, 100,000 g supernatant)
Protocol: (§1) A. Preparation of the β-lactamases Tem-1 and P99
(§2) The β-lactamases are isolated from bacterial strains which are resistant to penicillins and cephalosporins (Tem1 and P99 are produced by E.coli 250HT21 and E.Cloacae 293HT6 respectively).
(§3) The bacteria are cultured at 37° C. in heart-brain culture at 37 g/l (DIFCO). They are harvested at the end of the exponential phase, cooled down and centrifuged. The bacterial pellets are taken up in sodium phosphate buffer 50 mM, pH 7.0 and centrifuged again. The bacteria are taken up in two volumes of the same buffer and lyzed using a French-Press maintained at 4° C. After centrifugation for 1 hour at 100,000 g, at 4° C., the supernatants containing the soluble fraction of the bacterial extracts are recovered and frozen at −80° C.
(§4) The method uses Nitrocefin (OXOID), cephalosporin chromogene as substrate, of which the product hydrolyzed by the B-lactamases is red and absorbs at 485 nm. Beta-lactamase activity is determined kinetically by measurement of the absorbance variation at 485 nm resulting from the hydrolysis of the substrate using a plate spectrophotometer (Spectra Max More Molecular Devices). The experiments are carried out at 37° C. The quantity of enzyme was normalized and the measurements are carried out at initial speed.
(§5) Two measurements were carried out, without preincubation and with preincubation of the enzyme and inhibitor (5 mn), in order to test the irreversibility of the reaction. The products are tested at 6 or 8 concentrations in duplicate. The reaction mixture contains 100 μM of Nitrocefin and 50 mM sodium phosphate buffer pH7.0.
(§6) The hydrolysis speeds are measured with and without inhibitor. The concentration of inhibitor which inhibits by 50% the hydrolysis reaction of Nitrocefin by the enzyme (CI50) is determined. The data is processed using GraFit software (Erathycus Software).

β-lactamase P99 = target: T2, β-lactamase P99 (Enterobacter cloacae, UniProt P05364); assay: biochemical; details: 100 μM Nitrocefin, 50 mM sodium phosphate buffer pH7.0, 37° C.; read-out: IC50 nM/P99
T2 construct: The β-lactamases are isolated from bacterial strains which are resistant to penicillins and cephalosporins; endogenous in cells; host or cells: Enterobacter cloacae 293HT6 (natural producer; French-press lysate, 100,000 g supernatant)
Protocol: as §1, §2, §3, §4, §5, §6

E. coli 250CF1 (Tem3) = assay: microbe, parasite or virus in culture; type: cell-based; details: 24 hours at 37° C.; for MIC: Escherichia coli
Protocol: (§7) The operation is carried out as follows, using the so-called micro-dilution in liquid medium method.
(§8) A series of concentrations of the β-lactamine is prepared in the presence of a constant concentration (5 mg/l) of the product to be studied, each is then seeded with various bacterial strains.
(§9) After incubation for 24 hours in a heating chamber at 37° C., the growth inhibition is evaluated by the absence of any bacterial development, which allows the minimal inhibitory concentrations (MIC) for each strain to be determined, expressed in milligrams/l.

[1] = tested on: E. cloacae 293HT6 (Class C); assay: MIC, micro-dilution in liquid medium, β-lactamine with product at 5 mg/l; type: cell-based; details: 24 hours at 37° C.; for MIC: Enterobacter cloacae
Protocol: as §7, §8, §9

E. coli 250BE1 (SHV4) = assay: as above; type: cell-based; details: 24 hours at 37° C.; for MIC: Escherichia coli
Protocol: as §7, §8, §9

E. coli 250HT21 (Tem1) = assay: as above; type: cell-based; details: 24 hours at 37° C.; for MIC: Escherichia coli
Protocol: as §7, §8, §9

E. coli 250HT22 (Tem2) = assay: as above; type: cell-based; details: 24 hours at 37° C.; for MIC: Escherichia coli
Protocol: as §7, §8, §9

[2] = tested on: E. coli 250HT23 (Class D); assay: as above; type: cell-based; details: 24 hours at 37° C.; for MIC: Escherichia coli
Protocol: as §7, §8, §9

E. coli 250HT26 (SHV1) = assay: as above; type: cell-based; details: 24 hours at 37° C.; for MIC: Escherichia coli
Protocol: as §7, §8, §9

E. coli 250SJ1 (Tem7) = assay: as above; type: cell-based; details: 24 hours at 37° C.; for MIC: Escherichia coli
Protocol: as §7, §8, §9

[3] = tested on: S. aureus 011GO66 (PeniR); assay: as above; type: cell-based; details: 24 hours at 37° C.; for MIC: Staphylococcus aureus
Protocol: as §7, §8, §9

[4] = tested on: P. aeruginosa 391HT7 (PSE); assay: as above; type: cell-based; details: Pseudomonas aeruginosa, 24 hours at 37° C.
Protocol: as §7, §8, §9

[5] = tested on: P. aeruginosa 391HT8 (PSE); assay: as above; type: cell-based; details: Pseudomonas aeruginosa, 24 hours at 37° C.
Protocol: as §7, §8, §9

Serratia 301HT6 = assay: as above; type: cell-based; details: Trial 10, 301HT6 Serratia, 24 hours at 37° C.
Protocol: as §7, §8, §9

T2 sequence (P05364 21-381): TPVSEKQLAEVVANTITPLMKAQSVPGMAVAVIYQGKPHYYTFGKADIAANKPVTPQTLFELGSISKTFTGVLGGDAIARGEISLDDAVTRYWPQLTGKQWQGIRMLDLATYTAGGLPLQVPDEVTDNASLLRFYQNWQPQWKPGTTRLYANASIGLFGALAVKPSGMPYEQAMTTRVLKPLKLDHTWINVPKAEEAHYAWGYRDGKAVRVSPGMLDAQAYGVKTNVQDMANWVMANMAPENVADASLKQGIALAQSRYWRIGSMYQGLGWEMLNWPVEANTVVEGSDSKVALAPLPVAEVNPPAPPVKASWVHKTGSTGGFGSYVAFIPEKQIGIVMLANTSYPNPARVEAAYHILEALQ
T1 sequence (P62593 24-286 limits assumed): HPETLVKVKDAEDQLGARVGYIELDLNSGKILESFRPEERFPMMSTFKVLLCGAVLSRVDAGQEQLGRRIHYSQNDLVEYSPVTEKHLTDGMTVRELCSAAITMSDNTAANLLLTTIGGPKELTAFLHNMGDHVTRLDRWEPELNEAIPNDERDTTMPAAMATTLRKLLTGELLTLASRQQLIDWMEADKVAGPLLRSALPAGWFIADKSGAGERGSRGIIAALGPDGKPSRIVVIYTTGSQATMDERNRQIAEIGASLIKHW

## O=C(OCCc1ccncc1)[C@H]1CC[C@@H]2CN1C(=O)N2OS(=O)(=O)[O-].[Na+] (relative stereo) [Example 49, sodium salt of trans 2-(4-pyridinyl)ethyl 7-oxo-6-(sulphooxy)-1,6-diazabicyclo[3.2.1]octane-2-carboxylate]
β-lactamase TEM1
  IC50: 8.2 nM
β-lactamase P99
  IC50: 98 nM
E. coli 250CF1 (Tem3); compound at 5 mg/l, Trial 4, 250CF1 E. coli Tem3
  MIC of Cefotaxime in combination with the compound: 0.08 µg/mL
E. coli 250CF1 (Tem3); compound at 5 mg/l, Trial 4, 250CF1 Tem3
  MIC of Piperacillin in combination with the compound: 1.2 µg/mL
[1]; compound at 5 mg/l, Trial 9, 293HT6 Class
  MIC of Piperacillin in combination with the compound: 10 µg/mL
E. coli 250BE1 (SHV4); compound at 5 mg/l, Trial 7, 250BE1 E. coli SHV4
  MIC of Cefotaxime in combination with the compound: <=0.04 μg/ml
E. coli 250BE1 (SHV4); compound at 5 mg/l, Trial 7, 250BE1 SHV4
  MIC of Piperacillin in combination with the compound: 20 µg/mL
E. coli 250HT21 (Tem1); compound at 5 mg/l, Trial 2, 250HT21 E. coli Tem1
  MIC of Cefotaxime in combination with the compound: <=0.04 μg/ml
E. coli 250HT21 (Tem1); compound at 5 mg/l, Trial 2, 250HT21 Tem1
  MIC of Piperacillin in combination with the compound: 1.2 µg/mL
E. coli 250HT22 (Tem2); compound at 5 mg/l, Trial 3, 250HT22 E. coli Tem2
  MIC of Cefotaxime in combination with the compound: <=0.04 μg/ml
E. coli 250HT22 (Tem2); compound at 5 mg/l, Trial 3, 250HT22 Tem2
  MIC of Piperacillin in combination with the compound: 2.5 µg/mL
[2]; compound at 5 mg/l, Trial 8, 250HT23 Class D
  MIC of Piperacillin in combination with the compound: 10 µg/mL
[2]; compound at 5 mg/l, Trial 8, 250HT23 E. coli Class D
  MIC of Cefotaxime in combination with the compound: <=0.04 μg/ml
E. coli 250HT26 (SHV1); compound at 5 mg/l, Trial 6, 250HT26 E. coli SHV1
  MIC of Cefotaxime in combination with the compound: <=0.04 μg/ml
E. coli 250HT26 (SHV1); compound at 5 mg/l, Trial 6, 250HT26 SHV1
  MIC of Piperacillin in combination with the compound: 20 µg/mL
E. coli 250SJ1 (Tem7); compound at 5 mg/l, Trial 5, 250SJ1 E. coli Tem7
  MIC of Cefotaxime in combination with the compound: <=0.04 μg/ml
E. coli 250SJ1 (Tem7); compound at 5 mg/l, Trial 5, 250SJ1 Tem7
  MIC of Piperacillin in combination with the compound: 5 µg/mL
[3]; compound at 5 mg/l, Trial 1, 011GO66 S. aureus PeniR
  MIC of Cefotaxime in combination with the compound: 2.5 µg/mL
[3]; compound at 5 mg/l, Trial 1, 011GO66 peniR
  MIC of Piperacillin in combination with the compound: 1.2 µg/mL

## CO/N=C(\C(=O)N[C@@H]1C(=O)N2C(C(=O)O)=C(COC(C)=O)CS[C@H]12)c1csc(N)n1 [Cefotaxime, cefotaxime, reference compound]
E. coli 250CF1 (Tem3); Trial 4, 250CF1 E. coli Tem3, read-out: MIC of Cefotaxime alone
  MIC: > 40 µg/mL
[1]; Trial 9, 293HT6 E. cloacae Class C, read-out: MIC of Cefotaxime alone
  MIC: > 40 µg/mL
E. coli 250BE1 (SHV4); Trial 7, 250BE1 E. coli SHV4, read-out: MIC of Cefotaxime alone
  MIC: 40 µg/mL
E. coli 250HT21 (Tem1); Trial 2, 250HT21 E. coli Tem1, read-out: MIC of Cefotaxime alone
  MIC: ≤ 0.04 µg/mL
E. coli 250HT22 (Tem2); Trial 3, 250HT22 E. coli Tem2, read-out: MIC of Cefotaxime alone
  MIC: ≤ 0.04 µg/mL
[2]; Trial 8, 250HT23 E. coli Class D, read-out: MIC of Cefotaxime alone
  MIC: 0.08 µg/mL
E. coli 250HT26 (SHV1); Trial 6, 250HT26 E. coli SHV1, read-out: MIC of Cefotaxime alone
  MIC: 0.6 µg/mL
E. coli 250SJ1 (Tem7); Trial 5, 250SJ1 E. coli Tem7, read-out: MIC of Cefotaxime alone
  MIC: 0.08 µg/mL
[4]; Trial 11, 391HT7 P. aeruginosa PSE, read-out: MIC of Cefotaxime alone
  MIC: 40 µg/mL
[5]; Trial 12, 391HT8 P. aeruginosa PSE, read-out: MIC of Cefotaxime alone
  MIC: 40 µg/mL
[3]; Trial 1, 011GO66 S. aureus PeniR, read-out: MIC of Cefotaxime alone
  MIC: 1.2 µg/mL
Serratia 301HT6; read-out: MIC of Cefotaxime alone
  MIC: 0.3 µg/mL

## CCN1CCN(C(=O)N[C@@H](C(=O)N[C@@H]2C(=O)N3[C@@H]2SC(C)(C)[C@@H]3C(=O)O)c2ccccc2)C(=O)C1=O [Piperacillin, piperacillin, reference compound]
E. coli 250CF1 (Tem3); Trial 4, 250CF1 Tem3, read-out: MIC of Piperacillin alone
  MIC: > 40 µg/mL
[1]; Trial 9, 293HT6 Class, read-out: MIC of Piperacillin alone
  MIC: > 40 µg/mL
E. coli 250BE1 (SHV4); Trial 7, 250BE1 SHV4, read-out: MIC of Piperacillin alone
  MIC: > 40 µg/mL
E. coli 250HT21 (Tem1); Trial 2, 250HT21 Tem1, read-out: MIC of Piperacillin alone
  MIC: > 40 µg/mL
E. coli 250HT22 (Tem2); Trial 3, 250HT22 Tem2, read-out: MIC of Piperacillin alone
  MIC: > 40 µg/mL
[2]; Trial 8, 250HT23 Class D, read-out: MIC of Piperacillin alone
  MIC: > 40 µg/mL
E. coli 250HT26 (SHV1); Trial 6, 250HT26 SHV1, read-out: MIC of Piperacillin alone
  MIC: > 40 µg/mL
E. coli 250SJ1 (Tem7); Trial 5, 250SJ1 Tem7, read-out: MIC of Piperacillin alone
  MIC: > 40 µg/mL
[4]; Trial 11, 391HT7 PSE, read-out: MIC of Piperacillin alone
  MIC: > 40 µg/mL
[5]; Trial 12, 391HT8 PSE, read-out: MIC of Piperacillin alone
  MIC: > 40 µg/mL
[3]; Trial 1, 011GO66 peniR, read-out: MIC of Piperacillin alone
  MIC: 10 µg/mL
Serratia 301HT6; read-out: MIC of Piperacillin alone
  MIC: 5 µg/mL
